Measurements as given in PMC3486884 (PLoS Pathogens, 2012).
Read-outs that look alike come from different tables or passages of the source.

Tests used:
CVA21 [1] = details: n=2
[2] = tested on: influenza virus (strain A/Puerto Rico/8/34/H1N1 depicted PR8); assay: microbe, parasite or virus in culture; details: unidentified influenza virus, A549, read-out: IC50 (PR8)
CVB4 [3] = assay: microbe, parasite or virus in culture; details: Enterovirus B, CVB4, HeLa, read-out: IC50 (CVB4)
CVB4 [4] = details: n=2
HRV2 [5] = details: n=2
HRV16 [6] = details: n=2
HRV2 [7] = assay: microbe, parasite or virus in culture; details: Human rhinovirus sp., HRV2, HeLa, read-out: IC50 (HRV2)
HRV16 [8] = assay: microbe, parasite or virus in culture; details: Human rhinovirus sp., HRV16, HeLa, read-out: IC50 (HRV16)
CVA21 [9] = assay: microbe, parasite or virus in culture; details: Coxsackievirus, CVA21, HeLa, read-out: IC50 (CVA21)
HRV1A [10] = assay: microbe, parasite or virus in culture; details: Human rhinovirus sp.; for activity at 0.03 µM / activity at 0.1 µM / activity at 0.31 µM / activity at 0.93 µM / activity at 2.78 µM / activity at 8.33 µM / activity at 25 µM: M-HeLa, 7 h; for activity at 0.03 µM: read-out: HRV1A infection (dsRNA), 0.03 µM; for activity at 0.1 µM: read-out: HRV1A infection (dsRNA), 0.10 µM; for activity at 0.31 µM: read-out: HRV1A infection (dsRNA), 0.31 µM; for activity at 0.93 µM: read-out: HRV1A infection (dsRNA), 0.93 µM; for activity at 2.78 µM: read-out: HRV1A infection (dsRNA), 2.78 µM; for activity at 8.33 µM: read-out: HRV1A infection (dsRNA), 8.33 µM; for activity at 25 µM: read-out: HRV1A infection (dsRNA), 25.00 µM
HRV1A [11] = details: for relative infection: n=2
HRV14 [12] = assay: microbe, parasite or virus in culture; details: Human rhinovirus sp., HRV14, HeLa, read-out: IC50 (HRV14)
CVB3 = details: n=2
HRV14 [13] = details: n=2

O=C(Nc1ccc([N+](=O)[O-])cc1Cl)c1cc(Cl)cc(Cl)c1O [TVB-1326]
relative infection (CVA21 [1]; 0.1 µM): 0.87 | relative infection (CVA21 [1]; 0.3 µM): 0.98 | relative infection (CVA21 [1]; 0.9 µM): 1.00 | relative infection (CVA21 [1]; 2.8 µM): 0.99 | relative infection (CVA21 [1]; 8.3 µM): 1.10 | relative infection (CVA21 [1]; 25.0 µM): 0.59 | IC50 [2]: 10.2 µM | IC50 (CVB4 [3]): 15 µM | relative infection (CVB4 [4]; 0.1 µM): 1.13 | relative infection (CVB4 [4]; 0.3 µM): 1.22 | relative infection (CVB4 [4]; 0.9 µM): 1.20 | relative infection (CVB4 [4]; 2.8 µM): 1.06 | relative infection (CVB4 [4]; 8.3 µM): 0.71 | relative infection (CVB4 [4]; 25.0 µM): 0.29 | relative infection (HRV2 [5]; 0.1 µM): 1.05 | relative infection (HRV2 [5]; 0.3 µM): 0.96 | relative infection (HRV2 [5]; 0.9 µM): 0.86 | relative infection (HRV2 [5]; 2.8 µM): 0.72 | relative infection (HRV2 [5]; 8.3 µM): 0.15 | relative infection (HRV2 [5]; 25.0 µM): 0.01 | relative infection (HRV16 [6]; 0.1 µM): 0.99 | relative infection (HRV16 [6]; 0.3 µM): 1.00 | relative infection (HRV16 [6]; 0.9 µM): 0.96 | relative infection (HRV16 [6]; 2.8 µM): 0.96 | relative infection (HRV16 [6]; 8.3 µM): 0.68 | relative infection (HRV16 [6]; 25.0 µM): 0.10 | IC50 (HRV2 [7]): 3.98 µM | IC50 (HRV16 [8]): 11.1 µM | IC50 (CVA21 [9]): ~25.8 µM | IC50 (HRV1A [10]; HeLa, read-out: IC50 (HRV1A)): 3.36 µM | activity at 0.03 µM (HRV1A [10]): 93% | activity at 0.1 µM (HRV1A [10]): 85% | activity at 0.31 µM (HRV1A [10]): 88% | activity at 0.93 µM (HRV1A [10]): 87% | activity at 2.78 µM (HRV1A [10]): 66% | activity at 8.33 µM (HRV1A [10]): 17% | activity at 25 µM (HRV1A [10]): 4% | relative infection (HRV1A [11]; 0.1 µM): 0.93 | relative infection (HRV1A [11]; 0.3 µM): 0.91 | relative infection (HRV1A [11]; 0.9 µM): 0.84 | relative infection (HRV1A [11]; 2.8 µM): 0.62 | relative infection (HRV1A [11]; 8.3 µM): 0.17 | relative infection (HRV1A [11]; 25.0 µM): 0.02 | IC50 (HRV14 [12]): 6.87 µM | relative infection (CVB3; 0.1 µM): 1.05 | relative infection (CVB3; 0.3 µM): 1.06 | relative infection (CVB3; 0.9 µM): 1.11 | relative infection (CVB3; 2.8 µM): 1.06 | relative infection (CVB3; 8.3 µM): 1.00 | relative infection (CVB3; 25.0 µM): 1.27 | relative infection (HRV14 [13]; 0.1 µM): 0.87 | relative infection (HRV14 [13]; 0.3 µM): 0.90 | relative infection (HRV14 [13]; 0.9 µM): 0.88 | relative infection (HRV14 [13]; 2.8 µM): 0.81 | relative infection (HRV14 [13]; 8.3 µM): 0.46 | relative infection (HRV14 [13]; 25.0 µM): 0.07

CS(=O)(=O)c1ccc(NC(=O)c2cc(Cl)ccc2O)c(Cl)c1 [TVB-1338]
relative infection (CVA21 [1]; 0.1 µM): 1.02 | relative infection (CVA21 [1]; 0.3 µM): 1.05 | relative infection (CVA21 [1]; 0.9 µM): 1.03 | relative infection (CVA21 [1]; 2.8 µM): 1.05 | relative infection (CVA21 [1]; 8.3 µM): 1.06 | relative infection (CVA21 [1]; 25.0 µM): 0.81 | IC50 [2]: 42.9 µM | relative infection (CVB4 [4]; 0.1 µM): 1.00 | relative infection (CVB4 [4]; 0.3 µM): 1.02 | relative infection (CVB4 [4]; 0.9 µM): 1.06 | relative infection (CVB4 [4]; 2.8 µM): 1.15 | relative infection (CVB4 [4]; 8.3 µM): 1.02 | relative infection (CVB4 [4]; 25.0 µM): 0.51 | relative infection (HRV2 [5]; 0.1 µM): 1.05 | relative infection (HRV2 [5]; 0.3 µM): 1.11 | relative infection (HRV2 [5]; 0.9 µM): 1.12 | relative infection (HRV2 [5]; 2.8 µM): 1.13 | relative infection (HRV2 [5]; 8.3 µM): 1.12 | relative infection (HRV2 [5]; 25.0 µM): 0.76 | relative infection (HRV16 [6]; 0.1 µM): 1.09 | relative infection (HRV16 [6]; 0.3 µM): 1.11 | relative infection (HRV16 [6]; 0.9 µM): 1.15 | relative infection (HRV16 [6]; 2.8 µM): 1.13 | relative infection (HRV16 [6]; 8.3 µM): 1.02 | relative infection (HRV16 [6]; 25.0 µM): 0.67 | IC50 (HRV16 [8]): ~26.9 µM | activity at 0.03 µM (HRV1A [10]): 123% | activity at 0.1 µM (HRV1A [10]): 106% | activity at 0.31 µM (HRV1A [10]): 109% | activity at 0.93 µM (HRV1A [10]): 105% | activity at 2.78 µM (HRV1A [10]): 106% | activity at 8.33 µM (HRV1A [10]): 111% | activity at 25 µM (HRV1A [10]): 112% | antiviral activity against HRV1A (structure-activity study, in words) (HRV1A [11]): eliminated antiviral activity | relative infection (HRV1A [11]; 0.1 µM): 1.02 | relative infection (HRV1A [11]; 0.3 µM): 0.96 | relative infection (HRV1A [11]; 0.9 µM): 1.07 | relative infection (HRV1A [11]; 2.8 µM): 1.12 | relative infection (HRV1A [11]; 8.3 µM): 1.11 | relative infection (HRV1A [11]; 25.0 µM): 0.95 | relative infection (CVB3; 0.1 µM): 0.97 | relative infection (CVB3; 0.3 µM): 1.10 | relative infection (CVB3; 0.9 µM): 1.09 | relative infection (CVB3; 2.8 µM): 1.05 | relative infection (CVB3; 8.3 µM): 0.94 | relative infection (CVB3; 25.0 µM): 0.94 | relative infection (HRV14 [13]; 0.1 µM): 1.07 | relative infection (HRV14 [13]; 0.3 µM): 1.12 | relative infection (HRV14 [13]; 0.9 µM): 1.20 | relative infection (HRV14 [13]; 2.8 µM): 1.17 | relative infection (HRV14 [13]; 8.3 µM): 1.13 | relative infection (HRV14 [13]; 25.0 µM): 0.62
